Structures can show the parent of a compound that is named as a salt. Where two headings read alike, the source gives them in different places.

The record followed here is patent US20010036944A1, “Certain benzothiazine dioxide endothelin antagonists and processes for their preparation” (priority 1997, published 2001).

For assay [1], the target named is T1, recombinant human ETAR (HETA) (Homo sapiens, UniProt P25101).
T1 construct: expressed in transfected cells; host or cells: Ltk- cells (membrane preparation)
T1 sequence (P25101 21-427): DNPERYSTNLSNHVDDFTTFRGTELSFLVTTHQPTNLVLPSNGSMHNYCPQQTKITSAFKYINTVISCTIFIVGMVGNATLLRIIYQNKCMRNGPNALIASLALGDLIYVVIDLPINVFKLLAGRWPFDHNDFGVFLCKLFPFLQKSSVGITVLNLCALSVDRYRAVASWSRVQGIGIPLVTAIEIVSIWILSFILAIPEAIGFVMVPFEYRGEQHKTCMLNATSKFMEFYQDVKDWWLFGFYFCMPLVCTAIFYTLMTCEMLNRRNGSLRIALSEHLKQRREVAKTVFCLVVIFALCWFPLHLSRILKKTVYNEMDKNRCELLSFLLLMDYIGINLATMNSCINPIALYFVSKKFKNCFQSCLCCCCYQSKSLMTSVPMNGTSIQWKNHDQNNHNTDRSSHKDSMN
The experiment in a line: Radioligand binding, [125I]ET-1 to membranes of Ltk- cells expressing recombinant human ETAR (HETA). As to conditions: [125I]ET-1 binding, human ETA, Ltk- cell membranes; read-out: HETA (IC50). On the procedure: (§1) The following cultured cells were used in binding experiments: Ltk-cells expressing recombinant human ETAR (HETA), and CHOKI cells expressing recombinant human ETBR (HETB).
(§2) Membranes were prepared from cultured cells by lysing cells in cold lysis buffer (5 mM HEPES, 2 mM EDTA, pH 7.4) and homogenizing with a Dounce “A” homogenizer. The homogenate was centrifuged at 30,000×g for 20 minutes at […]. Membrane pellets were suspended in cold buffer containing 20 mM Tris, 2 mM EDTA, 200 μM Pefabloc, 10 μM phosphoramidon, 10 μM leupeptin, 1 μM pepstatin at pH 7.4 and frozen at […] until use. Membranes were thawed and homogenized with a Brinkmann Polytron then diluted in tissue buffer containing 20 mM Tris, 2 mM EDTA, 200 μM Pefabloc, and 100 μM bacitracin (pH 7.4). Radioligand and competing ligands were prepared in binding buffer containing 20 mM Tris, 2 mM EDTA, and 0.1% BSA.
(§3) The assay was terminated by filtration over Whatman GF/B filters which were presoaked with 50 mM Tris, pH 7.4 containing 0.2% BSA and 100 μM bacitracin. Nonspecific binding was defined as binding in the presence of 100 nM ET-1.

Assay [2] concerns the target T2, recombinant human ETBR (HETB) (Homo sapiens, UniProt P24530).
T2 construct: expressed in transfected cells; host or cells: CHOKI (CHO-K1) cells (membrane preparation)
T2 sequence (P24530 27-442): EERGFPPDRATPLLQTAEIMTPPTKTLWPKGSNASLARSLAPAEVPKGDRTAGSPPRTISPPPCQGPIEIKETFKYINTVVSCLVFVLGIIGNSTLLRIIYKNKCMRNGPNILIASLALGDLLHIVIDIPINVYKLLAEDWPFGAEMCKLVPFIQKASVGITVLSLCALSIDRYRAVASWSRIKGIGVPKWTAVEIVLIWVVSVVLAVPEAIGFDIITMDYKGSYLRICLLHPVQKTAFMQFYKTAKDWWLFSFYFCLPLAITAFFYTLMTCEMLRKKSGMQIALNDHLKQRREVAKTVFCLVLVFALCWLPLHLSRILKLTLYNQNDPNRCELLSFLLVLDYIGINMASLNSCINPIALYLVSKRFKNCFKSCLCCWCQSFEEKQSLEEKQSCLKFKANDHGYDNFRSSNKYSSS
The experiment in a line: Radioligand binding, [125I]ET-1 to membranes of CHOKI cells expressing recombinant human ETBR (HETB). As to conditions: [125I]ET-1 binding, human ETB, CHOKI cell membranes. On the procedure: as §1, §2, §3

Assay [3] deals with ETA, cultured rabbit renal artery vascular smooth muscle cells. Put plainly: Inhibition of ET-1 stimulated arachidonic acid release (AAR) in cultured rabbit vascular smooth muscle cells (ETA). The format is cell-based. On the procedure: In Vitro Inhibition of ET-1 Stimulated Arachidonic Acid Release (AAR) in Cultured Rabbit Vascular Smooth Muscle Cells (ETA) by the Compounds of the Invention
Antagonist activity is measured by the ability of added compounds to reduce endothelinstimulated arachidonic acid release in cultured vascular smooth muscle cells. [^3H]Arachidonic Acid Loading Media (LM) is DME/F12+0.5% FCS×0.25 mCi/mL [^3H]arachidonic acid (Amersham). Confluent monolayers of cultured rabbit renal artery vascular smooth muscle cells were incubated in 0.5 mL of the LM over 18 hours, at 37° C., in 5% CO2. The LM was aspirated and the cells were washed once with the assay buffer (Hank's BSS +10 mM HEPES +fatty acidfree BSA (1 mg/mL)), and incubated for 5 minutes with 1 mL of the prewarmed assay buffer. This solution was aspirated, followed by an additional 1 mL of prewarmed assay buffer, and further incubated for another 5 minutes. A final 5minute incubation was carried out in a similar manner. The same procedure was repeated with the inclusion of 10 μL of the test compound (1 nM to 1 μM) and 10 μL ET-1 -(0.3 nM) and the incubation was extended for 30 minutes. This solution was then collected, 10 mL of scintillation cocktail was added, and the amount of [^3H]arachidonic acid was determined in a liquid scintillation counter.

Assay [4] has as its system ETA, rabbit femoral artery. The experiment in a line: Antagonism of ET-1 stimulated vasoconstriction (VERAA) in the rabbit femoral artery (ETA). The conditions noted are these: ET-1 stimulated vasoconstriction, rabbit femoral artery. An excerpt:
In Vitro Antagonism of ET-1 Stimulated Vasoconstriction (VERAA) in the Rabbit Femoral Arterv (ETA) and Sarafotoxin 6C Stimulated Vasoconstriction in the Rabbit Pulmonarv Artery (ETB)
Male New Zealand rabbits were killed by cervical dislocation and exsanguination. Femoral and pulmonary arteries were isolated, cleaned of connective tissue, and cut into 4mm rings. The endothelium was denuded by placing the rings over hypodermic tubing (32 gauge for femoral rings and 28 gauge for pulmonary rings, Small Parts, Inc., Miami, Fla.) and gently rolling them. Denuded rings were mounted in 20 mL organ baths containing Krebsbicarbonate buffer (composition in mM: NaCl, 118.2; NaHCO3, 24.8; KCl, 4.6; MgSO4 7H2O, 1.2; KH2PO4, 1.2; CaCl2 2H2O; CaNa2 EDTA, 0.026;, dextrose, 10.0), that was maintained at 37° C. and gassed continuously with 5% CO2 in oxygen (pH 7.4). Resting tension was adjusted to 3.0 g for femoral and 4.0 g pulmonary arteries; the rings were left for 90 minutes to equilibrate. Vascular rings were tested for lack of functional endothelium (ie, lack of an endotheliumdependent relaxation response to carbachol ([…]) in norepinephrine ([…]) contracted rings. Agonist peptides, ET-1 -(femoral), and S6c (pulmonary), were cumulatively added at 10-minute intervals. The ET antagonists were added 30 minutes prior to adding the agonist.

Where [5] appears, read: Oryctolagus cuniculus, VSMC, read-out: AARA (IC50, μM).

As to `Cc1ccccc1N1C(C(=O)O)=C(c2ccc3c(c2)OCO3)c2ccccc2S1(=O)=O` [Example 12], the IC50 is 61 nM in assay [1], > 25000 nM in assay [2] and 0.1 µM in assay [3] (setting [5]).
`O=C(O)C1=C(c2ccc3c(c2)OCO3)c2ccccc2S(=O)(=O)N1c1cc2c(cc1Cl)OCO2` [Example 25]: the results for the IC50 in assay [1], in assay [2] and in assay [3] (setting [5]) were 110 nM, > 25000 nM and 0.05 µM, respectively. In addition, the “VERAA (pA2)” value in assay [4] was 6.0.
Take “4-(7-Methoxybenzo[1,3]-dioxol-5-yl)-1,1-dioxo-2-(2-trifluoromethyl-phenyl) 1,2-dihydro 1λ^6-benzo [e][1,2thiazine-3-carboxylic acid [Example 7]”: the IC50 was found to be 3 nM in assay [1] and 0.0045 µM in assay [3] (ET-1 (0.3 nM) stimulated arachidonic acid release, rabbit renal artery VSMC, read-out: AARA (IC50)). The “VERAA (pA2)” value in assay [4] turned out to be 7.0.
On to `O=C(O)C1=C(c2ccc3c(c2)OCO3)c2ccccc2S(=O)(=O)N1c1ccccc1Br` [Example 17, 4-Benzo[1,3]dioxol-5yl-2-(2bromophenyl)-1,1-dioxo-1,2-dihydro-1λ^6-benzo[e][1,2]thiazine-3-carboxylic acid], for which the values for the IC50 in assay [1], in assay [2] and in assay [3] (setting [5]) were 30 nM, > 25000 nM and 0.031 µM, respectively.
On to `COc1cc(OC)cc(C2=C(C(=O)O)N(c3ccccc3C(F)(F)F)S(=O)(=O)c3ccccc32)c1` [Example 1, 4-(3,5-Dimethoxyphenyl)2-(2-trifluoromethyl-phenyl)-1,1-dioxo-1,2-dihydro-1λ^6-benzo[e][1,2]thiazine-3-carboxylic acid], for which the IC50 is 3 nM in assay [1] and > 2500 nM in assay [2]. For the same molecule, in assay [4], the “VERAA (pA2)” value is listed as 6.6.
On the same counts, the results for `COc1cc(C2=C(C(=O)O)N(c3ccccc3Br)S(=O)(=O)c3ccccc32)cc2c1OCO2` [Example 9, 2-(2-Bromo-phenyl)4-(7-methoxy-benzo[1,3]-dioxol-5-yl)-1,1 dioxo 1,2-dihydro-1λ^6-benzo[e][1,2]-thiazine-3-carboxylic acid monosodium salt] are 2 nM, > 2500 nM and 6.9.
On the same counts, the results for `CCCc1ccccc1N1C(C(=O)O)=C(c2ccc3c(c2)OCO3)c2ccccc2S1(=O)=O` [Example 14, 4-Benzo[1,3]dioxol-5-yl-2-(2-1,2-pyphenyl)-1,1-dioxo 1,2-dihydro-1λ^6-benzo[e][1,2]thiazine-3-carboxylic acid] are 35 nM, > 2500 nM and 5.8.
Consider `O=C(O)C1=C(c2ccc3c(c2)OCO3)c2ccccc2S(=O)(=O)N1c1ccccc1Cl` [Example 18, 4-Benzo [1,3]dioxol-5yl-2-(2-chlorophenyl)-1,1-dioxo-1,2-dihydro-1λ^6-benzo[e][1,2]thiazine-3-carboxylic acid], for which the results for the IC50 in assay [1], in assay [2] and in assay [3] (setting [5]) were 36 nM, > 25000 nM and 0.032 µM, respectively. Besides, the “VERAA (pA2)” value in assay [4] is recorded as 5.8.
For the molecule `O=C(O)C1=C(c2ccc3c(c2)OCO3)c2ccccc2S(=O)(=O)N1c1ccccc1C(F)(F)F` [Example 11, 4-Benzo[1,3]dioxol-5-yl-1,1-dioxo-2-(2-trifluoromethyl-phenyl)-1,2-dihydro-1λ^6-benzo[e][1,2]thiazine-3-carboxylic acid], the IC50 in assay [1] is 11 nM; in assay [2] it was 11000 nM. In assay [4], the “VERAA (pA2)” value is on record as 6.6.

Broadly, the IC50 is the midpoint of a concentration-inhibition curve.
